Data: US20240109853A1 (Shanghai Yao Yuan Biotechnology Co., Ltd., priority 2020, published 2024)

Tests used:
[1] = system: polymicrobial sepsis induced by cecal ligation and puncture; experiment: Sepsis induced acute kidney injury model (cecal ligation and puncture, CLP); conditions: rat CLP, 20 mg/kg 2 hours prior to surgery; for kidney proinflammatory gene expression (IL6, TNFa, IL-1b, CCl2, KC): kidneys 24 hours post-surgery, Q-PCR; for survival: survival over 24 hours
Procedure: Survival was recorded over the following 24 hours.
24 hours post-surgery, the kidneys were collected for gene expression analysis by Q-PCR.
24 hours post-surgery, plasma MCP-1 concentration was measured by ELISA.
We used a rat CLP model to evaluate the effects of compounds described here on sepsis. Briefly, the rat cecum was ligated with sterile silk thread, and then cecum was punctured twice with a needle, gently squeezed to express a small amount of fecal material, then the abdominal incision was closed. […] In addition, at 24 hours post-surgery, the kidneys were collected for gene expression analysis by Q-PCR and plasma was collected for measurement of plasma MCP-1 concentrations by ELISA.

[2] = system: innate immunity gene expression in kidney; experiment: Inhibition of activated ALPK1 in kidney: innate immunity gene expression after ALPK1 agonist; assay type: in vivo, Sprague-Dawley (SD) rats; conditions: SD rats, 4, 10 or 25 mg/kg oral 2 hours prior to agonist ip, kidney 3 hours after agonist, RT-PCR
Procedure: FIG. 2: Treatment groups were administered 4, 10 or 25 mg/kg of the ALPK1 inhibitor A0176 2 hours prior to the agonist, D-glycero-D-manno-6-fluoro-heptose-1β-S-ADP.
To test the effects of the ALPK1 inhibitors on the expression of innate immunity genes activated upon ALPK1 activation, SD rats were orally administered ALPK1 inhibitors followed by activation of innate immunity genes by intraperitoneal administration of an ALPK1 agonist, D-glycero-D-manno-6-fluoro-heptose-1β-S-ADP. Kidney tissue was harvested and assayed for gene expression. Briefly, Twenty male Sprague-Dawley (SD) rats were randomly divided into five groups. The normal group was given vehicle (0.5% MC) orally. After 2 hours, PBS was given by ip injection. The control group was given vehicle (0.5% MC) orally. After 2 hours, D-glycero-D-manno-6-fluoro-heptose-1β-S-ADP (50 μpk) was given by ip injection. The other 3 groups were given the ALPK1 inhibitor A0176 (4, 10 and 25 mpk) orally. After 2 hours, D-glycero-D-manno-6-fluoro-heptose-1β-S-ADP (50 μpk) was given by ip injection. […] Quantitative PCR was conducted using AceQ qPCR SYBR Green Master Mix Kit (Vazyme, Nanjing, China) on the QuantStudio 5 applied biosystems (Thermo scientific, USA). The relative mRNA levels were calculated using the 2-ΔΔCT method, and HPRT was used as a reference for gene expression normalization. […]

ALPK1 = ALPK1 (Homo sapiens (Human), UniProt Q96QP1); experiment: ALPK1 in vitro kinase assay (HTRF of TIFA phosphorylation); assay type: biochemical
Sequence of ALPK1 (Q96QP1 whole entry): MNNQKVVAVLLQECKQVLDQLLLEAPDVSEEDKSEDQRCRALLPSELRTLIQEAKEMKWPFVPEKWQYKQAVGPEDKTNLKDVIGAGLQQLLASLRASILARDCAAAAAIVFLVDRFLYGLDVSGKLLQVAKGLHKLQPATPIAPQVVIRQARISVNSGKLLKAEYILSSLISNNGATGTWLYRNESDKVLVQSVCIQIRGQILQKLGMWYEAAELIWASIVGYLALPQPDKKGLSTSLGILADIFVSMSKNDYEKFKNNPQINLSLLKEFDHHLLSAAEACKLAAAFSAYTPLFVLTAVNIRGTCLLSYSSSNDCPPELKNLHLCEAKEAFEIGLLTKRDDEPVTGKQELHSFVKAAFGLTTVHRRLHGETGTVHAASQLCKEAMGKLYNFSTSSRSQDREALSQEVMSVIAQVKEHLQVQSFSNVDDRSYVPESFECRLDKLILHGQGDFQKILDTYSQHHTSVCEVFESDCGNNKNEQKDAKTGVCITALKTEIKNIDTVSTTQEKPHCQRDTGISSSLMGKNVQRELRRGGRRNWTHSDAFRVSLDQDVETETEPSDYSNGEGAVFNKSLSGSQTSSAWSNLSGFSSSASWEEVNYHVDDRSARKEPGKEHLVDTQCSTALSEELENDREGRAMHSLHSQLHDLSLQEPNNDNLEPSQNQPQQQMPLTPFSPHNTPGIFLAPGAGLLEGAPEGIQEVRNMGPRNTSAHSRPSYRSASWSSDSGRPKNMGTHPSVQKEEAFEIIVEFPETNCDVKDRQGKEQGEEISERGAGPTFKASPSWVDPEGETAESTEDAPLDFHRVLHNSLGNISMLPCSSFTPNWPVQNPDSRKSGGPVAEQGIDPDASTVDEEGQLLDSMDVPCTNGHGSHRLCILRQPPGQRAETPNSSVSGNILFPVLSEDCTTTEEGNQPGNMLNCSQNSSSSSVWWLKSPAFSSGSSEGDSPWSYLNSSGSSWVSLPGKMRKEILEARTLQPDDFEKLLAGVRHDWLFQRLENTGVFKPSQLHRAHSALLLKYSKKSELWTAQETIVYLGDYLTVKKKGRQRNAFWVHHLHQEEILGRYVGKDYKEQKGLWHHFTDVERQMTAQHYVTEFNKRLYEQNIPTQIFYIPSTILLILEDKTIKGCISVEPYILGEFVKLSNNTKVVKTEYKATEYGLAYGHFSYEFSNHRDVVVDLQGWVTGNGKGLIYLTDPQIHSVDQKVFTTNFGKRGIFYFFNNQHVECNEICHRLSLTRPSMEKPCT

[3] = system: ALPK1-dependent NFκB reporter gene activation in HEK293 cells stably expressing an NF-kB reporter (G9 cells); experiment: NFκB gene reporter alkaline phosphatase assay; assay type: cell-based; conditions: Homo sapiens, HEK293; read-out: NFkB assay IC50
Summary of the method: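 Compounds, serially diluted, were added to attached HEK293-derived G9 reporter cells for 30 min prior to stimulation with the fluoro-heptose ADP agonist. Secreted alkaline phosphatase was quantified colorimetrically using pNPP.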

hALPK1-V1092A = hALPK1-V1092A (Homo sapiens (Human), UniProt Q96QP1, V1092A); experiment: cell-based
Sequence of hALPK1-V1092A (Q96QP1 whole entry V1092A): as the sequence (Q96QP1 whole entry) above, with V1092A counted along it
Procedure: Accordingly, we used IL-8 secretion as an indicator of activated ALPK1 inhibition in cells expressing these mutations.
Transfection was performed according to manufacturer's protocols (Lipofectamine™ 3000, ThermoFisher). Transfected cells were selected, seeded onto 96-well plates and treated with serial dilutions of the test compounds for 6.5 hr. Following treatment, cell viability was determined using a luminescent cell viability assay (Cell Counting-Lite Assay or “CCL Assay” from Vazyme Biotech Co., Ltd.) and cell free supernatants were collected and analyzed for IL-8 protein by IL-8 ELISA as described above.
Fresh medium and compound were added at 18 hours. Cell viability and IL-8 secretion were determined 6 hours after the second addition of compound, using the CCL assay and IL-8 ELISA as described above.

C#C[C@@](C)(c1ccc(Cl)cc1)c1csc(NC(=O)NCCO)n1 [Example A0176]
kidney proinflammatory gene expression (IL6, TNFa, IL-1b, CCl2, KC) [1]: decreased expression of kidney proinflammatory genes | plasma MCP-1 concentration ([1]; plasma 24 hours post-surgery, ELISA): improved the plasma MCP-1 levels | survival [1]: improved the animals' survival rate | kidney gene expression of innate immunity genes (MCP-1 (CCL-2), CCL-7, CXCL-1, CXCL-10, IL-1p, IL-6 mRNA) [2]: dose-dependent inhibition of gene expression levels

C#C[C@@](C)(c1ccc(Cl)cc1)c1csc(NC(=O)N2CC(c3ccc(N4CCNCC4)c(F)c3)C2)n1 [Example A245]
IC50 (ALPK1): 16 nM | IC50 [3]: 680 nM | IC50 (hALPK1-V1092A): 304 nM

C#C[C@@](C)(c1ccc(Cl)cc1)c1csc(NC(=O)NCCC(C)(C)O)n1 [Example A249, (S)-1-(4-(2-(4-chlorophenyl)but-3-yn-2-yl)thiazol-2-yl)-3-(3-hydroxy-3-methylbutyl)urea]
IC50 (ALPK1): 128 nM | IC50 [3]: 670 nM | IC50 (hALPK1-V1092A): 11700 nM

C#C[C@](C)(c1ccc(Cl)cc1)c1csc(NC(N)=O)n1 [Example A251, (R)-1-(4-(2-(4-chlorophenyl)but-3-yn-2-yl)thiazol-2-yl)urea]
IC50 (ALPK1): 81 nM | IC50 [3]: 1670 nM | IC50 (hALPK1-V1092A): 892 nM

C#C[C@@](C)(c1ccc(Cl)cc1)c1csc(NC(N)=O)n1 [Example A252, (S)-1-(4-(2-(4-chlorophenyl)but-3-yn-2-yl)thiazol-2-yl)urea]
IC50 (ALPK1): 30 nM | IC50 [3]: 530 nM | IC50 (hALPK1-V1092A): 723 nM

C#CC(C)(c1ccc(Cl)cc1)c1csc(NC(=O)N2CC(N3CCNCC3)C2)n1 (stereo not drawn) [Example A261, N-(4-(2-(4-chlorophenyl)but-3-yn-2-yl)thiazol-2-yl)-3-(piperazin-1-yl)azetidine-1-carboxamide]
IC50 (ALPK1): 83 nM | IC50 [3]: 510 nM | IC50 (hALPK1-V1092A): 573 nM

C#C[C@@](C)(c1ccc(Cl)cc1)c1csc(NC(=O)NCCS(N)(=O)=O)n1 [Example A289, 2-(3-(4-(2-(4-chlorophenyl)but-3-yn-2-yl)thiazol-2-yl)ureido)ethanesulfona-mide]
IC50 (ALPK1): 54 nM | IC50 [3]: 470 nM | IC50 (hALPK1-V1092A): 439 nM

C#C[C@](C)(c1ccc(OC)cc1)c1csc(NC(=O)NCCS(N)(=O)=O)n1 [Example A310, 2-(3-(4-(2-(4-methoxyphenyl)but-3-yn-2-yl)thiazol-2-yl)ureido)ethanesulfona-mide]
IC50 (ALPK1): 223 nM | IC50 [3]: 980 nM | IC50 (hALPK1-V1092A): 1910 nM

C#C[C@@](C)(c1ccc(OC)cc1)c1csc(NC(=O)NCCS(N)(=O)=O)n1 [Example A311, 2-(3-(4-(2-(4-methoxyphenyl)but-3-yn-2-yl)thiazol-2-yl)ureido)ethanesulfona-mide]
IC50 (ALPK1): 95 nM | IC50 [3]: 660 nM | IC50 (hALPK1-V1092A): 1160 nM

C#C[C@@](C)(c1ccc(Cl)cc1)c1csc(NC(=O)c2c(F)cc(N3CCNCC3)cc2F)n1 [Example C008, (S)-N-(4-(2-(4-chlorophenyl)but-3-yn-2-yl)thiazol-2-yl)-2,6-difluoro-4-(piperazin-1-yl)benzamide]
kidney proinflammatory gene expression (IL6, TNFa, IL-1b, CCl2, KC) [1]: decreased expression of kidney proinflammatory genes | survival [1]: improved the animals' survival rate
